From US9309285B2, “Macrocyclic broad spectrum antibiotics” (priority 2012, dated 2016)
Positions of bridges follow the written chain, without caps; N, C: chain ends. Non-standard residues stand in square brackets, D forms with d. Residues, ends and D or L forms follow the SMILES beside them. *: point of attachment. boroAla((+)-pinanediol) = C[C@H](N*)B1O[C@@H]2C[C@@H]3C[C@@H](C3(C)C)[C@]2(C)O1; Biphenylcarbonyl(4'-Bu) = CCCCc1ccc(-c2ccc(C(=O)*)cc2)cc1; Aad = N[C@@H](CCCC(=O)O)C(=O)O; Orn = NCCC[C@H](N)C(=O)O

Key:
[1] = target: T1, E. coli SPase (Escherichia coli, UniProt P00803); assay: SPase enzyme inhibition assay, fluorogenic peptide substrate, E. coli; type: biochemical; conditions: 3 nM E. coli SPase, 20 μM substrate, 10 minutes pre-incubation, room temperature; read-out: IC 50 (nM) E. coli
T1 construct: Full length His-tagged E. coli and S. aureus SPase proteins were expressed in E. coli BL21; His tag; made in house; host or cells: E. coli BL21 (DE3)
T1 sequence (P00803 whole entry): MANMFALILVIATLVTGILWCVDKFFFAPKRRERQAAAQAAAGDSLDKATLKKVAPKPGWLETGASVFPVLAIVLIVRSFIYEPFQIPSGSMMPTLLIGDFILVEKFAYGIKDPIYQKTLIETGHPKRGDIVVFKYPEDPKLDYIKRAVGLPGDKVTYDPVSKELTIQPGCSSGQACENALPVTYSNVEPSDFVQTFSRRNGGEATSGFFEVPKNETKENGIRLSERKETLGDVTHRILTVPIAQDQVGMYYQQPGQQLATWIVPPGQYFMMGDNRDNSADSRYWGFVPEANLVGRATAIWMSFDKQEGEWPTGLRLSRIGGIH
Method: (§1) Briefly, for expression of E. coli SPase, saturated overnight cultures grown in 20 ml of Luria-Bertani medium supplemented with ampicillin were subcultures into 1.5 L of Luria-Bertani, and shaken at 37° C. until an optical density at 600 nm of 0.4-0.5 was achieved. […] S. aureus SPase was expressed and purified similarly, with the following exceptions. […] Resin bound protein was washed in a similar buffer containing 1% Elugent in place of Triton X-100 prior to protein elution in wash buffer supplemented with 300 mM imidazole. […] All protein concentrations were determined by BCA assay.
(§2) Enzyme master solution was prepared by diluting Escherichia coli or Staphylococcus aureus SPase protein into reaction buffer to a final concentration of 3 nM or 10 nM respectively. Reaction buffer consisted of 20 mM NaKHPO4 pH 7.4, 100 mM NaCl, and 1% v/v Elugent™ detergent. Reactions were initiated by the addition of substrate to a final concentration of 20 μM. Reaction progress was monitored by measuring the increase in fluorescence signal (excitation at 314 nm, emission at 416 nm) using a SpectraMax M2 fluorescence microplate reader. […] Three-folder serial dilutions of test compounds, starting at 10 μM, were prepared in enzyme mix solution and incubated at room temperature for 10 minutes. Following this incubation, fluorogenic substrate was added to a final concentration of 20 μM and the increase in fluorescence, corresponding to substrate cleavage, was monitored continuously at room temperature for 1 hour. Initial reaction rates were calculated based on the rate of increase in fluorescence during the reaction. Reaction rates were plotted as a function of compound concentration, and IC50 values were determined nonlinear regression analysis (SoftMaxPro 5.4, Molecular Devices™) of the sigmoidal dose-response curve.

[2] = target: T2, S. aureus SPase (Staphylococcus aureus, UniProt P0A070); assay: SPase enzyme inhibition assay, fluorogenic peptide substrate, S. aureus; type: biochemical
T2 construct: Full length His-tagged E. coli and S. aureus SPase proteins were expressed in E. coli BL21; His tag; made in house; host or cells: E. coli BL21 (DE3)
T2 sequence (P0A070 1-191): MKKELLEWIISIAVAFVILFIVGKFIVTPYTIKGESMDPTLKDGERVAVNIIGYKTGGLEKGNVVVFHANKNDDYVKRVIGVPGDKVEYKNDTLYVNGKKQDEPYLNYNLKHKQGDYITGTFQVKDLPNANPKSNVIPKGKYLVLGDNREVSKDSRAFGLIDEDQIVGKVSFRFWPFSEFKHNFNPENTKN
Method: as §1, §2

[3] = system: Methicillin Resistant Staphylococcus aureus strain USA 300 (NRS384); assay: MIC by broth micro-dilution (CLSI), S. aureus; type: cell-based; conditions: Staphylococcus aureus, MRSA / NRS 384 / USA300; MRSA USA 300 (NRS384); cation adjusted Mueller Hinton Broth + 0.002% Tween-80; 35° C., 22 hours; read-out: MIC (μg/mL) S. aureus
Method: In vitro antimicrobial activity of each compound was determined by measuring minimal inhibitor concentrations (MICs) using the broth micro-dilution technique as approved by the Clinical and Laboratory Standards Institute (CLSI) (Methods for Dilution Antimicrobial Susceptibility Tests for Bacteria that Grow Aerobically; Approved Standard—Eighth Edition. CLSI document M07-A8. Wayne, Pa.: Clinical and Laboratroy Standards; 2009). Antibacterial activity was measure against two strains of bacteria: a Methicillin Resistant Staphylococcus aureus strain USA 300 (NRS384) and a strain of Escherichia coli MC4100 harboring the IMP4213, which results in increased outer-membrane permeability (B Martin and Silhavy T. Imp/OstA is required for cell envelope biogenesis in Escherichia coli. (2002) Molecular Microbiology, 45(5), 1289-1302). Cells were inoculated onto plates of Trypyticase Soy Agar or Luria Agar respectively and grown at 35° C. for 20 hours. Inocula suspensions were prepared by scraping cells into 1 ml of testing media (cation adjusted Mueller Hinton Broth supplemented with 0.002% v/v Tween-80) and diluting to a final OD600 nm of 0.01.
Test compounds were prepared in DMSO at a concentration of 10 mg/ml. These compound stocks were diluted into testing media at a concentration of 64 μg/ml and serial 2-fold dilutions were made in the same media, in 96-well U bottom microtiter dishes, for a total of 10 compound concentrations. Inocula suspensions were added to the 2-fold serial dilutions of test compounds to a final density of OD OD600 nm of 0.0005 and incubated at 35° C. for 22 hours.

| SMILES | IC50 [1] [nM] | IC50 [2] [nM] | MIC [3] [µg/mL] |
| --- | --- | --- | --- |
| CCCCc1ccc(-c2ccc(C(=O)NCC(C)C(=O)N[C@@H](CCCCN)C(=O)N(C)[C@@H]3C(=O)N[C@@H](C)C(=O)N[C@H](C(=O)O)Cc4ccc(O)c(c4)-c4cc3ccc4O)cc2)cc1 (mixture of isomers) [Compound 104] | 3.7 | 12 | 4 |
| CCCCc1ccc(-c2ccc(C(=O)NC(CCCCN)C(=O)N[C@H]3COCCCCOC[C@@H](C(=O)N[C@@H](C)B4O[C@@H]5C[C@@H]6C[C@@H](C6(C)C)[C@]5(C)O4)NC(=O)[C@H](C)NC3=O)cc2)cc1 (mixture of isomers) [Compound 206] | 81 | 600 | 4 |
| CCCCc1ccc(-c2ccc(C(=O)NCC(C)C(=O)N[C@@H](CCN)C(=O)N(C)[C@@H]3C(=O)N[C@@H](C)C(=O)N[C@H](C(=O)O)Cc4ccc(O)c(c4)-c4cc3ccc4O)cc2)cc1 (single isomer, unassigned) [Compound 114] | 730 | 2200 | 64 |
| CCCCc1ccc(-c2ccc(CC(=O)NCCC(=O)N[C@@H](CCCCN)C(=O)N(C)[C@@H]3C(=O)N[C@@H](C)C(=O)N[C@H](C(=O)O)Cc4ccc(O)c(c4)-c4cc3ccc4O)cc2)cc1 [Compound 101] | 5.4 | 30 | 6.3 |
| CCCCc1ccc(-c2ccc(C(=O)N[C@H](C)C(=O)N[C@@H](CCCCN)C(=O)N(C)[C@@H]3C(=O)N[C@@H](C)C(=O)N[C@H](C(=O)O)Cc4ccc(O)c(c4)-c4cc3ccc4O)cc2)cc1 [Compound 102] | 11 | 280 | 10 |
| CCCCc1ccc(-c2ccc(C(=O)N[C@@H](CCCCN)C(=O)N(C)[C@@H]3C(=O)N[C@@H](C)C(=O)N[C@H](C(=O)O)Cc4ccc(O)c(c4)-c4cc3ccc4O)cc2)cc1 [Compound 110] | 1.4 | 350 |  |
| CCCCCCCCCCCCCC(=O)N[C@@H](CCCCN)C(=O)N(C)[C@@H]1C(=O)N[C@@H](C)C(=O)N[C@H](C(=O)O)Cc2ccc(O)c(c2)-c2cc1ccc2O [Compound 111] | 2.2 | 160 |  |
| CCCCCCCCCCCCCC(=O)N[C@@H](CCCCN)C(=O)N(C)[C@@H]1C(=O)N[C@@H](C)C(=O)N[C@H](C(=O)NCB(O)O)Cc2ccc(O)c(c2)-c2cc1ccc2O [Compound 118] | 7.6 | 31 |  |
| CCCCCCCCCCCCCC(=O)N[C@@H](CCCCN)C(=O)N(C)[C@@H]1C(=O)N[C@@H](C)C(=O)N[C@H](C(=O)N[C@@H](C)B(O)O)Cc2ccc(O)c(c2)-c2cc1ccc2O [Compound 119] | 8.6 | 33 |  |
| CCCCc1ccc(-c2ccc(C(=O)NC[C@@H](C)C(=O)N[C@@H](CCCCN)C(=O)N(C)[C@@H]3C(=O)N[C@@H](C)C(=O)N[C@H](C(=O)N[C@@H](C)B4OC5C[C@@H]6C[C@@H](C6(C)C)[C@]5(C)O4)Cc4ccc(O)c(c4)-c4cc3ccc4O)cc2)cc1 (some centres unmarked) [Compound 120] | 18 | 220 |  |
| CCCCCCCC(=O)NCCC(=O)N[C@@H](CCCCN)C(=O)N(C)[C@@H]1C(=O)N[C@@H](C)C(=O)N[C@H](C(=O)O)Cc2ccc(O)c(c2)-c2cc1ccc2O [Compound 122] | 27 | 130 |  |
| CCCCCCCC(=O)N[C@@H](CCCCN)C(=O)N(C)[C@@H]1C(=O)N[C@@H](C)C(=O)N[C@H](C(=O)O)Cc2ccc(O)c(c2)-c2cc1ccc2O [Compound 124] | 23 | 1000 |  |
| C[C@@H]1NC(=O)[C@@H](N(C)C(=O)[C@H](CCCCN)NC(=O)c2ccc(-c3ccc(Cl)cc3)cc2)c2ccc(O)c(c2)-c2cc(ccc2O)C[C@@H](C(=O)O)NC1=O [Compound 127] | 1.4 | 440 |  |
| C[C@@H]1NC(=O)[C@@H](N(C)C(=O)[C@H](CCN)NC(=O)c2ccc(-c3ccc(Cl)cc3)cc2)c2ccc(O)c(c2)-c2cc(ccc2O)C[C@@H](C(=O)O)NC1=O [Compound 128] | 1.5 | 3500 |  |
| CCCCCCCC(=O)NCCC(=O)N[C@@H](CCCCN)C(=O)N(C)[C@@H]1C(=O)N[C@@H](C)C(=O)N[C@H](C(=O)N[C@@H](C)C(N)=O)Cc2ccc(O)c(c2)-c2cc1ccc2O [Compound 129] | 370 | 140 |  |
| CCCCCCCC(=O)NCCC(=O)N[C@@H](CCCCN)C(=O)N(C)[C@@H]1C(=O)N[C@@H](C)C(=O)N[C@H](C(N)=O)Cc2ccc(O)c(c2)-c2cc1ccc2O [Compound 130] | 160 | 580 |  |
| CCCCCCCC(=O)NCCC(=O)N[C@@H](CCCCN)C(=O)N(C)[C@@H]1C(=O)N[C@@H](C)C(=O)N[C@H](C(=O)N[C@@H](C)C(=O)N2CCC[C@H]2C(N)=O)Cc2ccc(O)c(c2)-c2cc1ccc2O [Compound 131] | 180 | 3.3 |  |
| CNC(=O)[C@@H]1CCCN1C(=O)[C@H](C)NC(=O)[C@@H]1Cc2ccc(O)c(c2)-c2cc(ccc2O)[C@H](N(C)C(=O)[C@H](CCCCN)NC(=O)c2ccc(-c3ccc(Cl)cc3)cc2)C(=O)N[C@@H](C)C(=O)N1 [Compound 136] | 44 | 47 |  |
| C[C@@H]1NC(=O)[C@@H](N(C)C(=O)[C@H](CCCCN)NC(=O)c2ccc(-c3ccc(Cl)cc3)cc2)c2ccc(O)c(c2)-c2cc(ccc2O)C[C@@H](C(=O)N[C@@H](C)C(=O)N(C)C)NC1=O [Compound 137] | 350 | 3100 |  |
| CCCCc1ccc(-c2ccc(C(=O)NC[C@@H](C)C(=O)N[C@@H](CCCCN)C(=O)N(C)[C@@H]3C(=O)N[C@@H](C)C(=O)N[C@H](C(=O)N[C@@H](C)C(=O)N4CCC[C@H]4C(N)=O)Cc4ccc(O)c(c4)-c4cc3ccc4O)cc2)cc1 [Compound 138] | 30 | 78 |  |
| CCCCc1ccc(-c2ccc(C(=O)N[C@@H](CCCCN)C(=O)N[C@H]3CCC(=O)NCCCC[C@@H](C(=O)N[C@@H](C)B4O[C@@H]5C[C@@H]6C[C@@H](C6(C)C)[C@]5(C)O4)NC(=O)[C@H](C)NC3=O)cc2)cc1 [Compound 201] ({Biphenylcarbonyl(4'-Bu)}-KEAK-{boroAla((+)-pinanediol)}; lactam 2-4) | 15 | 150 |  |
| CCCCc1ccc(-c2ccc(C(=O)N[C@@H](CCCCN)C(=O)N[C@H]3CCC(=O)NCCC[C@@H](C(=O)N[C@@H](C)B4O[C@@H]5C[C@@H]6C[C@@H](C6(C)C)[C@]5(C)O4)NC(=O)[C@H](C)NC3=O)cc2)cc1 [Compound 202] ({Biphenylcarbonyl(4'-Bu)}-KEA[Orn]-{boroAla((+)-pinanediol)}; lactam 2-4) | 28 | 200 |  |
| CCCCc1ccc(-c2ccc(C(=O)N[C@@H](CCCCN)C(=O)N[C@H]3CCCC(=O)NCCCC[C@@H](C(=O)N[C@@H](C)B4O[C@@H]5C[C@@H]6C[C@@H](C6(C)C)[C@]5(C)O4)NC(=O)[C@H](C)NC3=O)cc2)cc1 [Compound 203] ({Biphenylcarbonyl(4'-Bu)}-K[Aad]AK-{boroAla((+)-pinanediol)}; lactam 2-4) | 8.9 | 81 |  |
| CCCCc1ccc(-c2ccc(C(=O)N[C@@H](CCCCN)C(=O)N(C)[C@@H]3C(=O)N[C@@H](C)C(=O)N[C@H](C(=O)N[C@@H](C)B4O[C@@H]5C[C@@H]6C[C@@H](C6(C)C)[C@]5(C)O4)CCCCCc4cc3ccc4OC)cc2)cc1 [Compound 208] | 680 | > 10000 |  |
